Publication PMC9375819 (EJNMMI Research, 2022)
Blank lines part the entries; values can stand above or below the compound they belong to.

Assays:
[1] = target: T1, ATM (Homo sapiens, UniProt Q13315); experiment: Blocking of [18F]1 cell-associated activity by non-radioactive ATM inhibitors; assay type: cell-based; conditions: for effect on [18F]1 cell-associated activity at high molar excess: 1000 nM inhibitor, compared to DMSO control; for effect on [18F]1 cell-associated activity at lower inhibitor concentrations: 0.1–10 nM inhibitor
T1 construct: endogenous in cells; host or cells: H1299 shGFP and shATM cells
T1 sequence (Q13315 whole entry): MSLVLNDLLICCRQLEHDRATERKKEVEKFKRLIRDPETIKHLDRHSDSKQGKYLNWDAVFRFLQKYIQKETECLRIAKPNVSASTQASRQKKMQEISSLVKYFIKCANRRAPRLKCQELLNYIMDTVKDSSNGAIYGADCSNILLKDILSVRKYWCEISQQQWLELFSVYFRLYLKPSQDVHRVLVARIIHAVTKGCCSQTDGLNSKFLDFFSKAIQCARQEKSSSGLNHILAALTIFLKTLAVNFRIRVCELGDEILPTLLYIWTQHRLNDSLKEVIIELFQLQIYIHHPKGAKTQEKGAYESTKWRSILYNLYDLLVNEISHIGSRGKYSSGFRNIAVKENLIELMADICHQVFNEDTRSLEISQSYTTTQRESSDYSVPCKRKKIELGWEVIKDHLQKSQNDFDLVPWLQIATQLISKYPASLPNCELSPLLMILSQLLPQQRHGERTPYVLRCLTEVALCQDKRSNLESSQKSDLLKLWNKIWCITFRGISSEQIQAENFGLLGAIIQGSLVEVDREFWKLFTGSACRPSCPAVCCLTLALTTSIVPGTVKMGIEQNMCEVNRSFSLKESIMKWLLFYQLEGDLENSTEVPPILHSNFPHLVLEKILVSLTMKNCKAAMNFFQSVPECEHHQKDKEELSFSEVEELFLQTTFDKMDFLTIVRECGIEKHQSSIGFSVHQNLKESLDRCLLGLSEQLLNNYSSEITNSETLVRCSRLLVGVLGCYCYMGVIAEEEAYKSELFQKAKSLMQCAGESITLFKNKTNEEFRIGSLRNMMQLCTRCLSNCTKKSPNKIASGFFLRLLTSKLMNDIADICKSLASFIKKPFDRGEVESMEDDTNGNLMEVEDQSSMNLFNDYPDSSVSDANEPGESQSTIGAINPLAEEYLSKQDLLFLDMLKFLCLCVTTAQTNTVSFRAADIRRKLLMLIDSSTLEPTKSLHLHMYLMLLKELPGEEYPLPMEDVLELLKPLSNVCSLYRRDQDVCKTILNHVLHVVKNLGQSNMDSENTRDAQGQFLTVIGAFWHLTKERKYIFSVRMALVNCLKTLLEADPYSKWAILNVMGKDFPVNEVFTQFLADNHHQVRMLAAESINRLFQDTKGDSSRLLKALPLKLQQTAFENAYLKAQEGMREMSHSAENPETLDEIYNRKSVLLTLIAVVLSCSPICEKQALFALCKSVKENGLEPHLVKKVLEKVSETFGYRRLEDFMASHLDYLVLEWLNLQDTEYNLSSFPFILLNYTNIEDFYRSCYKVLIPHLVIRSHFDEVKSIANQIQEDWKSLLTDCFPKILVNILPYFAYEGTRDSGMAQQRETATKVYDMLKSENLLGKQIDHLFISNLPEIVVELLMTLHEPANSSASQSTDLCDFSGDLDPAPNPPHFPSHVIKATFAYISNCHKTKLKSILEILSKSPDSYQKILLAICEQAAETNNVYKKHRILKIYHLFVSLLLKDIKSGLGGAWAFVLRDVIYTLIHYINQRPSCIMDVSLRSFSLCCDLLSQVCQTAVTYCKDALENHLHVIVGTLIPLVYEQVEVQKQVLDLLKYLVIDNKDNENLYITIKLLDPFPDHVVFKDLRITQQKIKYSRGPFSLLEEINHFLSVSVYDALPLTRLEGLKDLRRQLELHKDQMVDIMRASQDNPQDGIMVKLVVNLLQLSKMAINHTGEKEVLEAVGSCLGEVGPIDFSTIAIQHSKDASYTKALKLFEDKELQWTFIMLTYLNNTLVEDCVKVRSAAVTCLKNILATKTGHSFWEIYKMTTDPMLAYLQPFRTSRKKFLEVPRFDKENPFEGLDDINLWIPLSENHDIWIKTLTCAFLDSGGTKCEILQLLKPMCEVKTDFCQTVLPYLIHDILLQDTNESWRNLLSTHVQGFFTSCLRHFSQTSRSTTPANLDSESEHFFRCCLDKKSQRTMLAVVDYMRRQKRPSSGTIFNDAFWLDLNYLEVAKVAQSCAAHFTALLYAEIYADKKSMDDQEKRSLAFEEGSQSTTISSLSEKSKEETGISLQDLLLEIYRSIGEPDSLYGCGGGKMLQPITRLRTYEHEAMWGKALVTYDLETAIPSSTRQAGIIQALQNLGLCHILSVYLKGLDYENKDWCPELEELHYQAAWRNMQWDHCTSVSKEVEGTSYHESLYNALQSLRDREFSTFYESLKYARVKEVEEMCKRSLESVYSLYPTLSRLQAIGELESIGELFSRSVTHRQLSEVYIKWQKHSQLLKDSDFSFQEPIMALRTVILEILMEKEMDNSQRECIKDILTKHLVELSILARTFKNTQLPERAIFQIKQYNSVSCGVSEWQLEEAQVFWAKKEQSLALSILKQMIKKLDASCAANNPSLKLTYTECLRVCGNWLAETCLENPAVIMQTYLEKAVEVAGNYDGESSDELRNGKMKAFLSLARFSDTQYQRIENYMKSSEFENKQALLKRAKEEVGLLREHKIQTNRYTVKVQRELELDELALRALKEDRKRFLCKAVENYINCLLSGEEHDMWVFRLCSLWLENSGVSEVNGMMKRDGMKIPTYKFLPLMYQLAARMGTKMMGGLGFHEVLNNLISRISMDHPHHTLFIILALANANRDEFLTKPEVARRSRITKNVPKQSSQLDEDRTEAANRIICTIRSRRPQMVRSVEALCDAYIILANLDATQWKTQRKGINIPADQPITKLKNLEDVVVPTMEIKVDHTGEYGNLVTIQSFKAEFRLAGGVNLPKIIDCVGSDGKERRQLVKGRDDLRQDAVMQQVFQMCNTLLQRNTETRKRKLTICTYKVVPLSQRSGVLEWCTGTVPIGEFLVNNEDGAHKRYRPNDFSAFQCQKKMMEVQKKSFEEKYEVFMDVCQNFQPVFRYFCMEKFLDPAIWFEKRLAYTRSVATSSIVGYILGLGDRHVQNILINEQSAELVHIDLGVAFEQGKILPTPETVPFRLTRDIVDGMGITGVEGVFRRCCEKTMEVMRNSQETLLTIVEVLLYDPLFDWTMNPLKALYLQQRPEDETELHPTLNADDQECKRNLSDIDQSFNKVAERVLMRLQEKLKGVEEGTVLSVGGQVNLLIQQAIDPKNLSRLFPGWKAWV
Protocol: (§1) H1299 non-small cell lung cancer cells, either wild type or stably transfected with short hairpin RNA for ATM (shATM) or GFP (shGFP, as a control) expression knockdown, were kindly gifted by Dr Anderson Ryan at the University of Oxford. All cells were cultured at 37 °C and 5% CO2 in Dulbecco’s modified Eagle medium (DMEM) supplemented with 10% foetal bovine serum (FBS) (Gibco, USA), 2 mM L-glutamine, 100 units/mL penicillin, and 100 µg/mL streptomycin (PSG) (Sigma-Aldrich); knockdown cell lines were additionally supplemented with 0.5 μg/mL puromycin dihydrochloride (Merck Life Science, UK). Cells were originally purchased from ATCC and were authenticated by the provider and by STR profiling. Cells were tested regularly for the absence of mycoplasma contamination and were cultured for a maximum of 20 passages after resuscitation from liquid nitrogen storage.

[2] = target: T1, ATM; experiment: Western blot of pATM, pKAP1 and pCHK2 in irradiated H1299 shGFP cells; assay type: cell-based; conditions: irradiated (4 Gy) H1299 shGFP knockdown cells, inhibitor 1 h before irradiation, relative to DMSO control
Protocol: as §1

[3] = set-up: method as in PMID 29938225, PMID 33123736; conditions: phase I clinical trial; cited from earlier work
[4] = system: H1299 shATM and shGFP cells; experiment: Cell retention of [18F]1; assay type: cell-based, human; conditions: after 1 h incubation with tracer, over 2 h
Protocol: as §1
Retention assays followed the same procedure with a 1-h incubation of cell with [^18F]1, but after culture medium was aspirated and cells washed with PBS (2 × 500 μL), it was replaced (500 μL DMEM) and cells incubated at 37 °C and 5% CO2 for the desired time. The amount of ^18F-activity retained in cells was then determined as above.

[5] = PET/CT imaging and ex vivo biodistribution in wild type and ATM-null mice; set-up: species or system C57BL/6 mice; conditions: 1 h after intravenous administration
Protocol: (§2) All animal procedures were performed in accordance with the UK Animals (Scientific Procedures) Act 1986 and with local ethical committee approval. Mice were bred from parent C57BL/6 J mice heterozygous for a targeted mutation in the ATM^tm1Awbl allele to produce ATM-null (ATM^−/−) mice (Jackson laboratory). Wild-type (ATM^+/+) mice from this breeding program were used as controls. In a separate study, tumour xenografts were created in BALB/c nu/nu mice (8 weeks old) via subcutaneous injection of H1299 wild type, shATM knockdown, or shGFP knockdown cells in a 1:1 PBS/Matrigel® formulation on both sides of the hind flank. Total tumour volumes were allowed to reach an average of 600 mm^3 (range 330–930 mm^3) before imaging and/or biodistribution studies (approx. 6–10 weeks after inoculation).
Animals were anaesthetised by 4% isoflurane gas (0.5 L/min O2) and maintained at approx. 2% and 37 °C throughout the imaging session. C57BL/6 ATM^+/+ and ATM^−/− mice were administered [^18F]1 (83 ng; 0.5–4.6 MBq, molar activity range of 3.2–24.2 GBq/μmol with a standard deviation of 6.5 GBq/μmol) via intravenous bolus injection in the lateral tail vein. […] PET images were each registered to CT, attenuation corrected, calibrated by imaging a phantom containing a fluorine-18 standard solution, and analysed using PMod software package (version 3.807, PMOD Technologies).

[6] = Ex vivo biodistribution, uptake in H1299 tumour xenografts; set-up: species or system BALB/c nu/nu mice
Protocol: as §2
Animals were anaesthetised by 4% isoflurane gas (0.5 L/min O2) and maintained at approx. 2% and 37 °C throughout the imaging session. C57BL/6 ATM^+/+ and ATM^−/− mice were administered [^18F]1 (83 ng; 0.5–4.6 MBq, molar activity range of 3.2–24.2 GBq/μmol with a standard deviation of 6.5 GBq/μmol) via intravenous bolus injection in the lateral tail vein. Xenograft-bearing BALB/c nu/nu mice were administered [^18F]1 (0.5 μg; 0.7–9.6 MBq, molar activity range of 0.62–9.8 GBq/μmol with a standard deviation of 3.0 GBq/μmol) via intravenous bolus injection to the lateral tail vein. PET/CT scanning was completed using a VECTor4CT scanner (MILabs, Utrecht, the Netherlands) for 1 h and was immediately followed by culling, dissection, and gamma counting of selected organs. Tumour tissue was immediately flash frozen in liquid nitrogen and mounted in OCT before producing 10 μm thick sections for autoradiography and H&E staining. Alternatively, frozen tumour tissue was macerated and lysed in RIPA buffer for western blot analysis (full details available in the supporting information). Reconstruction of both CT and PET images was performed with the MILabs reconstruction analysis using a γ-ray energy window of 467–571 keV (background weight 2.5%), 0.8 mm^3 voxel size, 8 subsets, and 5 iterations using the manufacturer’s SROSEM reconstruction type. PET images were each registered to CT, attenuation corrected, calibrated by imaging a phantom containing a fluorine-18 standard solution, and analysed using PMod software package (version 3.807, PMOD Technologies).

[7] = system: H1299 shATM and shGFP cells; experiment: Cell uptake of [18F]1; assay type: cell-based, human; conditions: irradiated 4 Gy or sham-irradiated, 37 °C
Protocol: as §1
To assess cellular uptake of [^18F]1, aliquots of H1299 shATM or shGFP cells were plated with 1 × 10^5 cells per well in 24-well plates in 500 μL complete growth medium and incubated overnight to allow cells to adhere. Cell culture medium was removed, cells washed with PBS and media replaced with DMEM (no additives). […] The amount of ^18F-activity associated with each fraction was determined using a Wizard2 Automatic Gamma Counter (PerkinElmer).

[8] = system: PI3K; set-up: method as in earlier work; conditions: read-out: Cellular IC50 by catalytic inhibition: PI3K; cited from earlier work
[9] = target: T2, murine ATM (Mus musculus, UniProt Q62388); experiment: Western blot of ATM inhibition in CT26 murine colorectal cancer cells; assay type: cell-based
T2 construct: endogenous in cells; host or cells: CT26 murine colorectal cancer cells
Protocol: Western blot analysis was performed to compare the total ATM expression between cell models, in addition to expression of phospho-ATM^S1981 (pATM), phospho-KAP1^S824 (pKAP1), and phospho-CHK2^T68 (pCHK2) expression to assess the effect of irradiation and ATM inhibition on ATM catalytic activity. Cells were irradiated (4 Gy; 0.75 Gy/min) or sham-irradiated and incubated at 37 °C for 1 h before harvesting cells for lysis and blotting (full details in supporting information). Where required, inhibitors were added to cells at the stated concentration from DMSO stock solutions (reaching no greater than 10% DMSO final concentration) with incubation for 1 h prior to irradiation/sham-irradiation. The following antibodies and dilutions were used in this work: phospho-ATM S1981 (ab81292, 1:5000, Abcam); phospho-KAP1 S824 (ab133440, 1:10,000, Abcam); phospho-CHK2 T68 (#2661, 1:1000, Cell Signalling Technologies); Total ATM (ab32420, clone [Y170], 1:500, Abcam); Total KAP1 (ab10483, 1:1000, Abcam); Total CHK2 (05-649, 1:1000, Merck Millipore); HRP-conjugated Tubulin (ab197740, clone [YL1/2], 1:4000, Abcam); HRP-conjugated β-Actin (clone 13E5, 1:1000, Cell Signalling Technologies), HRP-conjugated anti-rabbit secondary (HAF008, 1:1000, R&D Systems); and HRP-conjugated anti-mouse secondary (HAF007, 1:1000, R&D Systems). […]

[10] = system: ATM; set-up: method as in earlier work; conditions: cited from earlier work
[11] = system: mTOR; set-up: method as in earlier work; conditions: read-out: Cellular IC50 by catalytic inhibition: mTOR; cited from earlier work
[12] = system: ATR; set-up: method as in earlier work; conditions: read-out: Cellular IC50 by catalytic inhibition: ATR; cited from earlier work
[13] = BALB/c nu/nu mice, intravenous, 1 h

Structure (SMILES): CC(C)n1c(=O)n(C)c2cnc3cc(F)c(-c4ccc(OCCCN5CCCCC5)nc4)cc3c21 [AZD1390]
effect on [18F]1 cell-associated activity at high molar excess [1]: increase in cell-associated activity
effect on [18F]1 cell-associated activity at lower inhibitor concentrations ([1]; H1299 shATM and shGFP cells): initial blocking effect
pATM expression and downstream targets pKAP1 and pCHK2, western blot [2]: decrease in pATM expression

Structure (SMILES): C[C@@H]1CN(CC(=O)Nc2ccc3c(c2)Cc2cccc(-c4cc(=O)cc(N5CCOCC5)o4)c2S3)C[C@H](C)O1 [KU60019, reference compound]
blocking of [18F]1 cell-associated activity ([1]; increasing concentrations of blocking agent, H1299 shATM and shGFP cells, 1 h tracer incubation): significant blocking
pATM expression and downstream targets pKAP1 and pCHK2, western blot [2]: decrease in pATM expression

Structure (SMILES): CC(C)n1c(=O)n([11CH3])c2cnc3cc(F)c(-c4ccc(OCCCN5CCCCC5)nc4)cc3c21 [[^11C]AZD1390]
blood–brain barrier penetration by PET [3]: ability to cross the blood–brain barrier

Structure (SMILES): CC(C)n1c(=O)n(C)c2cnc3ccc(-c4ccc(OCCCN5CCCCC5)nc4[N+](=O)[O-])cc3c21 [compound 2]
pATM expression and downstream targets pKAP1 and pCHK2, western blot [2]: decrease in pATM expression

Continued, in another order:

clearance route ([5]; wild type and ATM-null C57BL/6 mice): hepatobiliary clearance
uptake in H1299 tumour xenografts (shATM) [6, 13]: 0.35 ± 0.10 %ID/g
uptake in H1299 tumour xenografts (shGFP) [6, 13]: 0.35 ± 0.14 %ID/g
uptake in H1299 tumour xenografts (wild type) [6, 13]: 0.38 ± 0.12 %ID/g
tumour uptake, range ([6]; after 1 h, all tumour types): 0.13–0.90 %ID/g
clearance route ([6]; xenograft-bearing BALB/c nu/nu mice): hepatobiliary clearance
Structure (SMILES): CC(C)n1c(=O)n(C)c2cnc3ccc(-c4ccc(OCCCN5CCCCC5)nc4[18F])cc3c21 [[^18F]1]
decrease in cell-associated activity (retention) [4]: approximately 50%
difference in uptake between wild type and ATM-null mice ([5]; C57BL/6 mice): Significant differences in uptake between the two mice were only observed in the kidneys and liver
cell-associated activity (uptake) [7]: increase in cell-associated activity over 1 h followed by a plateau

murine ATM inhibition and reduction of downstream target pKAP1, western blot [9]: murine ATM inhibition
effect on [18F]1 cell-associated activity at high molar excess [1]: increase in cell-associated activity
effect on [18F]1 cell-associated activity at lower inhibitor concentrations ([1]; H1299 shATM and shGFP cells): initial blocking effect
pATM expression and downstream targets pKAP1 and pCHK2, western blot [2]: decrease in pATM expression
Structure (SMILES): CC(C)n1c(=O)n(C)c2cnc3ccc(-c4ccc(OCCCN5CCCCC5)nc4F)cc3c21 [compound 1]
IC50 [8]: 5.75 µM
IC50 ([10]; read-out: Cellular IC50 by catalytic inhibition: ATM): < 0.00043 µM
IC50 value of ATM inhibition ([10]; reported value): sub-nM
IC50 [11]: > 5.19 µM
IC50 [12]: > 30 µM
